Laboratory results as given in PubChem BioAssay AID2842 (Southern Research Institute, 2010).
Values after ≈ are worked out from the molar mass of the structure shown.

What follows are molecules tested on M. tuberculosis H37Rv growth inhibition (assay: Mycobacterium tuberculosis H37Rv growth inhibition, putative kinase inhibitor library, confirmatory dose response (AID 2842);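 further: bacteria incubated one week before Alamar blue readout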).

SMILES	IC90
Cc1nnsc1C(=O)Nc1ccc([N+](=O)[O-])cc1C(F)(F)F	28.1 µg/mL (≈ 84.5 µM)
Cc1ccc(Nc2nc(N3CCCC3)nc3nccnc23)cc1C	3.21 µg/mL (≈ 10 µM)
CCc1ccc(Nc2ncnc3c2cnn3-c2ccc(C)cc2C)cc1	6.47 µg/mL (≈ 18.8 µM)
Cc1ccc(C)c(-c2nnc(NC(=O)c3ccc(S(=O)(=O)N(C)C4CCCCC4)cc3)o2)c1	58.3 µg/mL (≈ 124 µM)
O=C(Nc1nnc(-c2ccccc2)o1)c1ccc2c(c1)CCCC2	15.5 µg/mL (≈ 48.7 µM)
O=C1CN(C(=O)c2cccc3ccccc23)C(c2ccccc2)c2cc(Br)ccc2N1 (stereo unspecified)	8.15 µg/mL (≈ 17.3 µM)
Cc1ccc(C)c2sc(N(CCCn3ccnc3)C(=O)c3ccc(F)cc3)nc12	4.35 µg/mL (≈ 10.6 µM)
O=C(Nc1nnc(C2=COCCO2)o1)c1ccc(Oc2ccccc2)cc1	16.8 µg/mL (≈ 46 µM)
CCOC(=O)c1ccc2nc(Nc3nc4cc5c(cc4s3)OCO5)sc2c1	34.8 µg/mL (≈ 87.2 µM)
CCOc1ccc2nc(SC3CC(=O)N(c4ccc(N5CCCCC5)cc4)C3=O)sc2c1 (stereo unspecified)	24.8 µg/mL (≈ 53 µM)
Cc1cc(NC2CCCCC2)n2ncc(-c3ccccc3)c2n1	10.6 µg/mL (≈ 34.5 µM)
N=c1nnc2c3ccccc3ccc2n1O	41.3 µg/mL (≈ 195 µM)
O=c1cnnc(N/N=C/c2c(O)ccc3ccccc23)[nH]1	< 0.2 µg/mL
CC(C)Oc1ccc(C(=O)Nc2nnc(-c3cc(Cl)ccc3Cl)o2)cc1	13.8 µg/mL (≈ 35.3 µM)
CC(=O)c1cccc(Nc2nc(Nc3ccc(F)c(Cl)c3)nc(N3CCOCC3)n2)c1	8.38 µg/mL (≈ 18.9 µM)
Cc1cccc(Cn2cc3c(-c4ccc(C)c(C)c4)nnc-3c3cc4c(cc32)OCCO4)c1	3.47 µg/mL (≈ 7.97 µM)
CS(=O)(=O)c1ccc(-c2nnc(NC(=O)c3ccc(Cl)s3)o2)cc1	1.67 µg/mL (≈ 4.35 µM)
O=C(OCn1nnc2ccccc2c1=O)c1cccs1	4.31 µg/mL (≈ 15 µM)
COc1ccc(CC2S/C(=N/N=C/c3ccccc3O)NC2=O)cc1 (stereo unspecified)	< 0.2 µg/mL

SMILES	IC90
Cc1[nH]c2ccccc2c1/C=N/NC(=O)c1cc(-c2ccc(Br)s2)[nH]n1	12.2 µg/mL (≈ 28.6 µM)
O=C(Nc1cccc(Cl)c1)Nc1c2c(nn1-c1ccccc1)CSC2	19.7 µg/mL (≈ 53.2 µM)
Cc1cccc2sc(NNC(=O)c3ccc(N(C)C)cc3)nc12	28.6 µg/mL (≈ 87.6 µM)
O=C1N/C(=N/N=C/c2ccccc2O)SC1Cc1ccc(Cl)cc1Cl (stereo unspecified)	1.32 µg/mL (≈ 3.35 µM)
Cc1ccc(C(=O)Nc2nnc(C3=COCCO3)o2)cc1	2.78 µg/mL (≈ 9.68 µM)
O=C(Cc1cccc2ccccc12)Nc1nnc(-c2ccco2)o1	6.89 µg/mL (≈ 21.6 µM)
CSc1nc2cc(NC(=S)NC(=O)c3ccccc3)ccc2s1	6.89 µg/mL (≈ 19.2 µM)
COc1ccc2nc(N(CCCn3ccnc3)C(=O)Cc3ccc(F)cc3)sc2c1	5.64 µg/mL (≈ 13.3 µM)
COc1cccc(-c2nnc(NC(=O)c3ccc(Cl)s3)o2)c1	< 0.2 µg/mL
C=CCOC(=O)COc1ccc2cc(-c3ccc(Cl)cc3)c(=O)oc2c1	2.53 µg/mL (≈ 6.82 µM)
CSc1nnc(C)c(=O)n1COC(=O)/C=C/c1ccc2c(c1)OCO2	11.2 µg/mL (≈ 31 µM)
Cc1ccc(-c2nnc(NC(=O)c3ccccc3)o2)c(C)c1	8.78 µg/mL (≈ 29.9 µM)
COc1ccc(C)c2sc(N3CCc4ccccc4C3)nc12	11.1 µg/mL (≈ 35.6 µM)
O=C(Nc1nnc(-c2ccc(Br)cc2)o1)c1ccc(S(=O)(=O)N2CCCCCC2)cc1	16 µg/mL (≈ 31.7 µM)
Cc1ccc(-c2nnc(NC(=O)c3cc4ccccc4oc3=O)o2)c(C)c1	1.36 µg/mL (≈ 3.76 µM)
C=CCOC(=O)COc1ccc2c(-c3cc4ccccc4oc3=O)cc(=O)oc2c1	4.35 µg/mL (≈ 10.8 µM)
CC(C)N1CCc2c(sc(NC(=O)c3ccc(S(=O)(=O)N(C)c4ccccc4)cc3)c2C(N)=O)C1	12.8 µg/mL (≈ 25 µM)
COC(=O)c1c(NC(=O)c2ccccc2Cl)sc2c1CC(C)(C)NC2(C)C	44.8 µg/mL (≈ 110 µM)
COc1cc2ccccc2cc1C(=O)Nc1nnc(-c2cc(Cl)ccc2Cl)o1	27.6 µg/mL (≈ 66.5 µM)

SMILES	IC90
CCOc1ccc(-c2[nH]ncc2-c2ccc(Cl)cc2)c(O)c1	7.06 µg/mL (≈ 22.4 µM)
Cc1ccc(NC(=O)c2oc3ccccc3c2NC(=O)CCl)cc1C	10.2 µg/mL (≈ 28.5 µM)
O=C(Nc1nnc(-c2cc(Cl)ccc2Cl)o1)c1ccc(Cl)s1	1.86 µg/mL (≈ 4.96 µM)
COc1ccc(-c2nnc3c4ccccc4n(Cc4cccc(C)c4)cc2-3)cc1	13.4 µg/mL (≈ 35.3 µM)
CCS(=O)(=O)c1cccc(C(=O)Nc2nc3ccc(C(C)C)cc3s2)c1	11.3 µg/mL (≈ 29.1 µM)
CC(=O)N1CCc2c(sc(NC(=O)c3ccc(N(C)C)cc3)c2C(N)=O)C1	8.5 µg/mL (≈ 22 µM)
O=C(c1ccc(Nc2nc(-c3ccccc3)c3cc(Br)ccc3n2)cc1)N1CCCC1	21.1 µg/mL (≈ 44.6 µM)
Cc1ccc(C(=O)Nc2cccc(-c3ccc4nnc(C)n4n3)c2)cc1C	12.9 µg/mL (≈ 36 µM)
CCOC(=O)c1csc(Nc2nc3c(SC)cccc3s2)n1	3.13 µg/mL (≈ 8.91 µM)
Cc1ccc(C)c(-c2nnc(NC(=O)c3ccc(S(=O)(=O)N(C)c4ccccc4)cc3)o2)c1	13.3 µg/mL (≈ 28.8 µM)
COc1cc2c3nnc(-c4ccc(C)cc4)c-3cn(Cc3ccc(Cl)cc3)c2cc1OC	4.8 µg/mL (≈ 10.8 µM)
O=C(Nc1nnc(-c2ccc3c(c2)CCCC3)o1)c1ccc(Cl)cc1Cl	0.91 µg/mL (≈ 2.34 µM)
COc1cccc2sc(Nc3nc4ccc(C(C)C)cc4s3)nc12	2.24 µg/mL (≈ 6.3 µM)
Cc1ccc2c(c1)C(c1ccccc1)N(C(=O)c1ccc(-c3ccccc3)cc1)CC(=O)N2 (stereo unspecified)	5.05 µg/mL (≈ 11.7 µM)
CN(C)S(=O)(=O)c1ccc(C(=O)N2CC(=O)Nc3ccc(Br)cc3C2c2ccccc2)cc1 (stereo unspecified)	35.3 µg/mL (≈ 66.8 µM)
COc1ccc2c(c1)c(=O)c(C(=O)c1ccc(C)cc1)cn2Cc1cccc(C)c1	6.97 µg/mL (≈ 17.5 µM)
COc1cccc(/C=N/Nc2nc(=O)[nH]nc2C)c1O	0.5 µg/mL (≈ 1.82 µM)
CC(=O)N1CCc2c(sc(NC(=O)c3ccc(C)cc3)c2C(N)=O)C1	8.93 µg/mL (≈ 25 µM)
